From ChEMBL document CHEMBL1201862, “PubChem BioAssay data set” (2004) come the findings set out here.

Each structure is given as a SMILES string. The source made the active and inactive calls.

The nature of assay [1]: inhibition of mouse IRAP aminopeptidase activity – biochemical, Leu-AMC fluorescence, cherry-picked samples, set 2, selectivity assay for ERAP1 modulator project, dose response (AID 743340).
Assay [2] has as its target Endoplasmic reticulum aminopeptidase 2 (Homo sapiens, UniProt Q6P179). Nature of the assay: inhibition of ERAP2 arginine-AMC cleavage – biochemical, fluorescence plate reader, cherry-picked, set 2, selectivity assay for selective ERAP1 modulator project, dose response (AID 743320).
The nature of assay [3]: intracellular Trypanosoma cruzi inhibitors in host cells – cell-based, plate reader, cherry-pick samples, set 3, dose response (AID 651818).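 Also: compounds incubated with infected cells for about four days.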 In kind it is functional.
The nature of assay [4]: inhibitors acting on PAX2 in cells – cell-based, plate reader, dry powder samples, selectivity assay for PAX8 inhibitor project, dose response (AID 743048).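 Also: HEK293 cells carrying a WT1 promoter luciferase reporter driven by expressed Pax2; potency is for inhibition of Pax2 driven reporter signal.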 In kind it is functional.
Assay [5] in a line: IGROV1 cell killing – plate reader, dry powder samples, PAX8 inhibitor project, dose response (AID 743043). The following applies: IGROV-1. In kind it is functional, cell-based.
Assay [6] can be described thus: OVCAR-3 cell viability loss – plate reader, dry powder samples, PAX8 inhibitor project, dose response (AID 743044). In kind it is functional, cell-based.
Assay [7] is described as follows: OVCAR4 cell viability loss – plate reader, dry powder, SA11, cytotoxicity control for PAX8 inhibitor project, dose response (AID 743150). In kind it is functional, cell-based. The following applies: OVCAR-4.
The nature of assay [8]: PAX5 cellular inhibition readout – cell-based, plate reader, dry powder samples, selectivity assay for PAX8 inhibitor project, dose response (AID 743047).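 Also: HEK293 cells carrying a Pax5 driven CD19 promoter luciferase reporter; potency of inhibitors that lower reporter luminescence.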 In kind it is functional.
Assay [9] is described as follows: PAX8-dependent cell viability loss – plate reader, dry powder, dose response (AID 743049). In kind it is functional, cell-based.
Assay [10] is described as follows: OV-90 cell viability loss – plate reader, dry powder, SA8, PAX8 inhibitor project, dose response (AID 743149). In kind it is functional, cell-based.
Assay [11] is described as follows: COV362 cell viability loss – plate reader, dry powder, SA12, cytotoxicity control for PAX8 inhibitor project, dose response (AID 743144). In kind it is functional, cell-based.
Assay [12] in a line: toxicity toward immortalized ovarian surface epithelium – cell-based, plate reader, dry powder samples, cytotoxicity control for PAX8 inhibitor project, dose response (AID 743045). In kind it is functional.
In a further assay the target is Paired box protein Pax-8 (Homo sapiens, UniProt Q06710). Nature of the assay: PAX8 transcriptional activity inhibition in RMG-I – RMG-I cells, luciferase, cherry-pick, dose response (AID 687027).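 Also: luciferase reporter driven by Pax8 target thyroperoxidase promoter measured by SteadyGlo luminescence.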 In kind it is functional, cell-based.
Assay [13] can be described thus: COV434 cell viability loss – plate reader, dry powder, SA7, cytotoxicity control for PAX8 inhibitor project, dose response (AID 743145). In kind it is functional, cell-based.
A short description of assay [14]: Late stage assay provider results from the probe development effort to identify inhibitors of the Plasmodium falciparum M18 Aspartyl Aminopeptidase (M18AAP): radiolabel-based cell-based dose response assay to identify compounds that inhibit P. falciparum growth in RBCs, Set 2.. In kind it is functional.
Assay [15] concerns the target Potassium channel subfamily K member 9 (Homo sapiens, UniProt Q9NPC2). The assay is described as follows: KCNK9 flux blockade, concentration-response – cell-based, FluxOR thallium flux, selectivity assay for TASK1 inhibitor project, SAR follow-up (AID 652211).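 Also: potency is for inhibitors of the channel.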 In kind it is functional.
For assay [16], the target named is Potassium channel subfamily K member 3 (Homo sapiens, UniProt O14649). The assay is described as follows: inhibition of human KCNK3 channel flux – CHO cells, FluxOR thallium flux, SAR follow-up (AID 652212). In kind it is functional.
The target in the next assay is Vasopressin V1b receptor (Homo sapiens, UniProt P47901). Nature of the assay: Late-stage results from the probe development effort to identify antagonists of arginine vasopressin receptor 1a (AVPR1a): fluorescence-based cell-based dose response AVPR1b inhibition counterscreen assay. In kind it is functional.
Assay [17] is described as follows: Late-stage results from the probe development effort to identify antagonists of arginine vasopressin receptor 1a (AVPR1a): fluorescence-based cell-based dose response OXTR inhibition counterscreen assay. In kind it is functional. On the technique in general: The purpose of a counterscreen is to sort out artefacts and off-target activity.
The next assay has as its target Vasopressin V2 receptor (Homo sapiens, UniProt P30518). The assay is described as follows: Late-stage results from the probe development effort to identify antagonists of arginine vasopressin receptor 1a (AVPR1a): fluorescence-based cell-based dose response AVPR2 inhibition counterscreen assay. In kind it is functional.
The nature of assay [18]: Late-stage results from the probe development effort to identify antagonists of arginine vasopressin receptor 1a (AVPR1a): fluorescence-based cell-based dose response AVPR1a inhibition assay. In kind it is functional.
Assay [19] deals with C-X-C chemokine receptor type 4 (Homo sapiens, UniProt P61073). The assay is described as follows: SAR analysis of small molecule antagonists of the CXCR6 receptor using a CXCR4 receptor luminescent beta-arrestin counterscreen. In kind it is functional.
In assay [20] the target is T1, C-C chemokine receptor type 6 (Homo sapiens, UniProt P51684).
T1 sequence (P51684 whole entry): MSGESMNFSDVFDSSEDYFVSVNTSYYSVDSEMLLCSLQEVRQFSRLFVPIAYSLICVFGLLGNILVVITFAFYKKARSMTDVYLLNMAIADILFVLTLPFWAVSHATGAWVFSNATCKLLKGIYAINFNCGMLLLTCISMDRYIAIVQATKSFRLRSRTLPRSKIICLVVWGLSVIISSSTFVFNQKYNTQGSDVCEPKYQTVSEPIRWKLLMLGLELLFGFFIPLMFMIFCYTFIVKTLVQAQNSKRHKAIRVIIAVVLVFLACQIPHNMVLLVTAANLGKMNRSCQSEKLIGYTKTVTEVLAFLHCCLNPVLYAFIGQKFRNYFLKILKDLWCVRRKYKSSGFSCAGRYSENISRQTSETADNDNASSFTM
The assay is described as follows: SAR analysis of small molecule antagonists of the CXCR6 receptor using a CCR6 receptor luminescent beta-arrestin counterscreen. In kind it is functional.

Endoplasmic reticulum aminopeptidase 2, sequence (Q6P179 whole entry): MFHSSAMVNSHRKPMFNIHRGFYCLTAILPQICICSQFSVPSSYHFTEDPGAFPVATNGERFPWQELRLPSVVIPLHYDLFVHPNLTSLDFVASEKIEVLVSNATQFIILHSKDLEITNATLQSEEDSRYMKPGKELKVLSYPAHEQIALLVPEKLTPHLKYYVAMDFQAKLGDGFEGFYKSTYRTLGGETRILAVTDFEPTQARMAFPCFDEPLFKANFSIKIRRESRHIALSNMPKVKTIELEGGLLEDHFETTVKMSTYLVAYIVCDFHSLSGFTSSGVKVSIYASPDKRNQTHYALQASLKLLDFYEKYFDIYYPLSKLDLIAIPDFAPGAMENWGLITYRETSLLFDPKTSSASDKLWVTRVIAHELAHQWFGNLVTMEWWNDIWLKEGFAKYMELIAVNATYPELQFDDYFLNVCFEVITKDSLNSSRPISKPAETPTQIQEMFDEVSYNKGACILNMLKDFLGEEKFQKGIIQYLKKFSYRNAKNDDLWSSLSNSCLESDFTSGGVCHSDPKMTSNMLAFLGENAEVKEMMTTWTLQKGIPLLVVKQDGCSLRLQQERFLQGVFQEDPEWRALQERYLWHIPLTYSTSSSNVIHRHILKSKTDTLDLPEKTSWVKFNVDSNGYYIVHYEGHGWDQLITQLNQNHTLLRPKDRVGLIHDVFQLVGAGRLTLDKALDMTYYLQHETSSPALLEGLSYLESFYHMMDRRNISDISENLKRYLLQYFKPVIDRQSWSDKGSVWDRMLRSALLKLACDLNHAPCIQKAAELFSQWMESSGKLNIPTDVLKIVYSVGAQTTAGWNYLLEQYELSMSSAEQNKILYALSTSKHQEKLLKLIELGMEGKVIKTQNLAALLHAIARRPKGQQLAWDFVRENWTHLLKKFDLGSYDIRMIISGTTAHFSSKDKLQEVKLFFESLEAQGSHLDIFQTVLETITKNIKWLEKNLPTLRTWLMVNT
Vasopressin V1b receptor, sequence (P47901 whole entry): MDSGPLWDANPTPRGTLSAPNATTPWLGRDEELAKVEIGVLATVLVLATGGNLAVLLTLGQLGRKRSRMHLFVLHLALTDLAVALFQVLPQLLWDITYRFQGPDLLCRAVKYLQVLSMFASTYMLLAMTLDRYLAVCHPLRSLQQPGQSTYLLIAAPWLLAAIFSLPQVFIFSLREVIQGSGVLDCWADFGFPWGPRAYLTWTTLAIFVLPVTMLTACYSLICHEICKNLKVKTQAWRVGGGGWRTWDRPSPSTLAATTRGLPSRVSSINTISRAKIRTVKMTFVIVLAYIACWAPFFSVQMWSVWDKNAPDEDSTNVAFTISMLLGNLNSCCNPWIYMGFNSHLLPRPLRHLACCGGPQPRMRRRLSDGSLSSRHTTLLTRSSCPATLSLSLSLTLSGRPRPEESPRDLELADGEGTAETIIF
Vasopressin V2 receptor, sequence (P30518 whole entry): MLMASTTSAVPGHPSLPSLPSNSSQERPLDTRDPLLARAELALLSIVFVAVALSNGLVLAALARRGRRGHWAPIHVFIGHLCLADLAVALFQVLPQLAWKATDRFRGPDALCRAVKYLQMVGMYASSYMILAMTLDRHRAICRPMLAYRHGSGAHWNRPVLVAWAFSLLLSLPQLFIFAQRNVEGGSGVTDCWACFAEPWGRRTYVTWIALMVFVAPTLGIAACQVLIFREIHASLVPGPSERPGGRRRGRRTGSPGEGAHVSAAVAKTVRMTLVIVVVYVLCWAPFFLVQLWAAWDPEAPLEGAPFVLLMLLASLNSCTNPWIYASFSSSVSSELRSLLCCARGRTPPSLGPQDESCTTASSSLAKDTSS
Potassium channel subfamily K member 9, sequence (Q9NPC2 whole entry): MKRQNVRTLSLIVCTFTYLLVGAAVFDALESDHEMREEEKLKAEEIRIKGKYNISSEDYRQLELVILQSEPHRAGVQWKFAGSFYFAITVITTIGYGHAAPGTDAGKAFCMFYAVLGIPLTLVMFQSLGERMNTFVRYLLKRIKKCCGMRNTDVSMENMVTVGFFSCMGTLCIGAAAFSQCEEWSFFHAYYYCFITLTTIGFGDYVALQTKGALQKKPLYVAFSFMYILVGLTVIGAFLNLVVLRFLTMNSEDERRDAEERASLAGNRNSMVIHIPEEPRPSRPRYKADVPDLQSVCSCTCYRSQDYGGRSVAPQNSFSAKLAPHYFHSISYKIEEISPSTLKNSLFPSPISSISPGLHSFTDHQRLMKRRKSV
C-X-C chemokine receptor type 4, sequence (P61073 whole entry): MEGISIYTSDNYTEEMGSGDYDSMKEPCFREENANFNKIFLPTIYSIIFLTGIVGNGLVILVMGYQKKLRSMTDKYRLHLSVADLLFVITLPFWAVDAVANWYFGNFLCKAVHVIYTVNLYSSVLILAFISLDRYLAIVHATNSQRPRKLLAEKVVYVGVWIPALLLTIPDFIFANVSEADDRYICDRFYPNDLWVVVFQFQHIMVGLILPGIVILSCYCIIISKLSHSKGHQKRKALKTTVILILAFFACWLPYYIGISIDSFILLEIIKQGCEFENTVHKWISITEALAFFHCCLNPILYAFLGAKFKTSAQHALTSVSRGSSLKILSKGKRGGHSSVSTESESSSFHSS
Potassium channel subfamily K member 3, sequence (O14649 whole entry): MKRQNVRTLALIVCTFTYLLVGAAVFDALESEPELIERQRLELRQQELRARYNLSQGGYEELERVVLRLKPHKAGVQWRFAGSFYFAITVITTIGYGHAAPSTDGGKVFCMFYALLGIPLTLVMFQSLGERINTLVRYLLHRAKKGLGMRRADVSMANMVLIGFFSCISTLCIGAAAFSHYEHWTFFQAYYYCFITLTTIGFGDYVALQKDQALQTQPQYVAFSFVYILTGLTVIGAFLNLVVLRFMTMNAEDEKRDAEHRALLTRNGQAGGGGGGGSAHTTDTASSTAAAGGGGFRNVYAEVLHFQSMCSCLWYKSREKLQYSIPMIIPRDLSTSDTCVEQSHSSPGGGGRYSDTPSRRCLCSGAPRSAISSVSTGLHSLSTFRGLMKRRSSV
Paired box protein Pax-8, sequence (Q06710 whole entry): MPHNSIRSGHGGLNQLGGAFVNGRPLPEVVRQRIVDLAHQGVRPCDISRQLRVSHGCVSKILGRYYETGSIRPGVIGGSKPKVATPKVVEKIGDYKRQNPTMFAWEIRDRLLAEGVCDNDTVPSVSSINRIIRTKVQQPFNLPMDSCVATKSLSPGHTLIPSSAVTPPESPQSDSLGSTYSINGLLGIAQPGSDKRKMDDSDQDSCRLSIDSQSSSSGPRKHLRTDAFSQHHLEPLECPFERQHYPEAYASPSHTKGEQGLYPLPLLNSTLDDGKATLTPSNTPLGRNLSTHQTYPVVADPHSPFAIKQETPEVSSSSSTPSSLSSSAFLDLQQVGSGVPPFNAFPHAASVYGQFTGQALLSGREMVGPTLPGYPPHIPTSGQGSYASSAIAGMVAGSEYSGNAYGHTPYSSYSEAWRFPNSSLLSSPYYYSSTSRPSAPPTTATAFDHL

In the case of `C[C@H](CO)N1C[C@H](C)[C@@H](CN(C)CC2CC2)Oc2c(NC(=O)Nc3ccc(C(F)(F)F)cc3)cccc2C1=O`, the AC50 (as a rule, the concentration at which the activity in the assay is half-maximal) in assay [1] is 16.9 µM (active); in [2], > 22 µM (inactive); in assay [3], 1.87 µM (active).
On to `N#C[C@H]1[C@@H](c2ccc(C#Cc3ccc(F)cc3)cc2)[C@H](CO)N1C(=O)Nc1ccc(F)cc1`, for which the AC50 in assay [4] is 14.1 µM (active); in assay [5], 30.1 µM (active); in assay [6], 23.5 µM (active); in assay [7] it was 19.2 µM (active); in assay [8], 14 µM (active); in assay [9] it was 13.2 µM (active). Moreover, the AC50 in assay [10] was 21.1 µM (active); in assay [11], 19.6 µM (active); in [12] it was 44.7 µM (active); on Paired box protein Pax-8 it was 12.3 µM (active); in assay [13] it was 20.5 µM (active).
Turning to `Oc1ccc(CCN2CCc3ccccc3C2)cc1O`, the IC50 (usually the concentration that gives 50% inhibition) in assay [14] was 7.9 µM (active).
For `Cc1cccc(C(=O)Nc2cccc(NC(=O)c3ccccc3OCC(C)C)c2)c1`, the IC50 in assay [15] is 3.39 µM (active); in assay [16], 0.206 µM (active).
As for `O=C(C1CCN(c2ccccn2)CC1)N(CC1CC1)c1ccc(Cl)cc1`, the IC50 is 18.9 µM (inactive) at Vasopressin V1b receptor, 9.6 µM (active) in assay [17], 28.3 µM (inactive) on Vasopressin V2 receptor and 0.0288 µM (active) in assay [18].
Consider `COc1cc(C(=O)NC2CC3CCCC(C2)N3CC(=O)Nc2ccc(C)cc2)cc(OC)c1OC` (stereo not drawn), for which the IC50 in assay [19] and in [20] was > 79 µM (inactive) each time.
